The record followed here is publication PMC8301783, “Pitfalls of NMDA Receptor Modulation by Neuroactive Steroids. The Effect of Positive and Negative Modulation of NMDA Receptors in an Animal Model of Schizophrenia” (Biomolecules, 2021).

The test deals with T1, GABAA receptor (GABAAR).
T1 construct: native receptors in rat cerebral cortex membrane homogenates
The test can be described thus: […]TBPS radioligand displacement, rat cortex membranes. In kind it is binding.

With `CC(=O)[C@H]1CC[C@H]2[C@@H]3CC[C@@H]4C[C@H](OC(=O)[C@@H](N)CCC(=O)O)CC[C@]4(C)[C@H]3CC[C@]12C` [PA-Glu, pregnanolone glutamate], the IC50 came to 7.5 µM.
